Consider 19 compounds from ChEMBL document CHEMBL5260825, “Chemical Constituents of Bryophytes: Structures and Biological Activity” (J Nat Prod, 2018).

pIC50: −log10 of the molar value. Values after ≈ are worked out from the molar mass of the structure shown. Values joined by “and” are separate entries in the source; they are usually repeats but may differ in a detail not shown here. Identical values can stand only once. Where only a bound is given, the exact number is not on record here.

A word on the MIC: it is the least concentration at which growth counts as inhibited. In general, IC50 refers to the concentration needed to halve the response being measured. The term LC50 denotes the concentration that kills 50% of the test population. As usually defined, the inhibition is how much of the control response was suppressed. High values mean a strong effect, low ones a weak effect. As usually defined, the GI50 is the concentration that inhibits growth by half. For orientation: pIC50 means −log10 of the IC50, conventionally taken in molar units. A higher pIC50 goes with a low IC50.

Data set [1] has as its system Candida albicans. Kind of data set: Antifungal activity against Candida albicans assessed as inhibition of fungal growth by MTT method. It counts as functional. On the technique in general: Tetrazolium dyes change colour on reduction, which living cells bring about.
The subject of another data set is Botrytis cinerea. Put plainly: Antifungal activity against Botrytis cinerea assessed as inhibition of microbial growth by microtiter plate based analysis. Type of data set: functional, organism-based.
The subject of another data set is Pyricularia oryzae. Put plainly: Antifungal activity against Pyricularia oryzae assessed as inhibition of microbial growth by microtiter plate based analysis. It counts as functional, organism-based.
A further data set deals with Zymoseptoria tritici. Put plainly: Antifungal activity against Zymoseptoria tritici assessed as inhibition of microbial growth by microtiter plate based analysis. It counts as functional, organism-based.
Data set [2] concerns Trichostrongylus colubriformis. Put plainly: Anthelmintic activity against third stage larvae of Trichostrongylus colubriformis by microscope based analysis. Type of data set: functional, organism-based.
Data set [3] concerns Candida albicans. Kind of data set: Antifungal activity against Candida albicans assessed as inhibition of fungal growth by MTT assay. It counts as functional.
Data set [4] relates to Trichophyton mentagrophytes. Kind of data set: Antifungal activity against Trichophyton mentagrophytes assessed as inhibition of microbial growth. Type of data set: functional.
Data set [5] in a line: Toxicity in brine shrimp assessed as lethality. The note with it: artemia salina.
Data set [6] deals with Calmodulin-1 (Homo sapiens) (UniProt P0DP23). Kind of data set: Inhibition of calmodulin (unknown origin).
Data set [7] has as its target T1, Polyunsaturated fatty acid 5-lipoxygenase (Homo sapiens) (UniProt P09917).
T1 sequence (whole entry): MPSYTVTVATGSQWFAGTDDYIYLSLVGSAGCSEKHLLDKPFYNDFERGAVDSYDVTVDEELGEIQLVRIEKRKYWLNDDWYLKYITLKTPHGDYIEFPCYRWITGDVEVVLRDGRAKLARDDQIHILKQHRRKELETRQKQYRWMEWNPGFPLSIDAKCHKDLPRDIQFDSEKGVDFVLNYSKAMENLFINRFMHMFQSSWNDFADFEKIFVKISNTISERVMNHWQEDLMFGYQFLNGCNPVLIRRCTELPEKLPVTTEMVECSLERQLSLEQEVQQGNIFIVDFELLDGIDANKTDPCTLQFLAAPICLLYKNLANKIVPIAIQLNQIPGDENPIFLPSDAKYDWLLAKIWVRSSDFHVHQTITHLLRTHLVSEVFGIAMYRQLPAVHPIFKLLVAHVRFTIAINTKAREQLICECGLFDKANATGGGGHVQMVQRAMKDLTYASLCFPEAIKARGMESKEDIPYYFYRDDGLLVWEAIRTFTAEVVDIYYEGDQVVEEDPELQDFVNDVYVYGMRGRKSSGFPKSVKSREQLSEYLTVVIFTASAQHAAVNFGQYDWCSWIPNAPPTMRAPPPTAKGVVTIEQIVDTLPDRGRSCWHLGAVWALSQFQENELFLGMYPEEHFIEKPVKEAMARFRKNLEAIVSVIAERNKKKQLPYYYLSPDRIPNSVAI
Kind of data set: Inhibition of ALOX5 (unknown origin) at 0.000001 M relative to control. The following applies: dose 1 µM.

In data set [8] the test system is Trypanosoma brucei brucei. Put plainly: […] activity against Trypanosoma brucei brucei GUTat 3.1 assessed as inhibition of parasite growth measured after 72 hrs by alamar blue assay. The note with it: GUTat 3.1, time 72 hrs, read-out: ED50 (the source's name). Type of data set: functional, organism-based. (Resazurin is reduced to fluorescent resorufin, in cell work by metabolically active cells.)

For another data set, the system named is Phytophthora infestans. Kind of data set: Antifungal activity against Phytophthora infestans assessed as inhibition of microbial growth by microtiter plate based analysis. It counts as functional, organism-based.
For data set [9], the system named is Panel NCI-60 (60 carcinoma cell lines). Put plainly: Antiproliferative activity against human Panel NCI-60 (60 carcinoma cell lines) assessed as cell growth inhibition. Type of data set: functional.
The target of data set [10] is T1, Polyunsaturated fatty acid 5-lipoxygenase (Homo sapiens). Put plainly: Inhibition of ALOX5 (unknown origin) assessed as reduction in calmodulin level.
Data set [11] concerns Trypanosoma brucei brucei. Put plainly: Antitrypanosomal activity against bloodstream Trypanosoma brucei brucei assessed as parasite growth inhibition measured after 72 hrs by alamar blue assay. Type of data set: functional, organism-based.
The target in a further data set is Cyclooxygenase (Homo sapiens, UniProt P35354+P23219). Put plainly: Inhibition of COX (unknown origin). Type of data set: protein assay.
For another data set, the system named is P388. Kind of data set: Antiproliferative activity against mouse P388 cells assessed as cell growth inhibition. Type of data set: functional, cell-based.
For the next data set, the system named is RAW264.7. Kind of data set: Inhibition of LPS-induced NO production in mouse RAW264.7 cells incubated for 24 hrs by Griess reagent based assay. Type of data set: functional, cell-based. The note with it: RAW264.7, 24 h. In general terms: Griess reagent forms a coloured azo dye with nitrite.
The next data set deals with Bacillus subtilis. Kind of data set: Antibacterial activity against Bacillus subtilis assessed as inhibition of bacterial growth. It counts as functional.
A further data set has as its system Staphylococcus aureus. Kind of data set: Antibacterial activity against Staphylococcus aureus assessed as inhibition of bacterial growth by agar diffusion method. It counts as functional.
For the next data set, the system named is HL-60. Kind of data set: Antiproliferative activity against human HL-60 cells assessed as cell growth inhibition. Type of data set: functional, cell-based.
Data set [12] in a line: Antioxidant activity assessed as DPPH radical scavenging activity. Type of data set: functional.

`CO[C@@H]1CC[C@]2(C)C3CCC4C(=CCC5C(C)(C)[C@H](O)CC[C@]45C)C[C@]3(C)CC[C@H]2C1(C)C` (stereo partly specified): in the data set on Candida albicans [1], the MIC turned out to be 2 µg/mL (≈ 4.38 µM).
In the case of `Oc1ccc2c(c1)CCc1ccc(O)c(c1)-c1cc(cc(Cl)c1O)CCc1ccc-2c(O)c1`, the IC50 in the data set with Botrytis cinerea is 18.9 µg/mL; in the data set on Pyricularia oryzae, 2.6 µg/mL; in the data set on Zymoseptoria tritici, 4.5 µg/mL.
Turning to `COc1cc(/C=C/c2ccccc2)ccc1O`, the IC50 in [2] was 60 µg/mL (≈ 265 µM).
As for `COC(=O)c1c(C)cc(OC(=O)c2c(C)cc(O)c(C=O)c2O)c(C)c1O` [ATRANORIN], the MIC with Candida albicans [1] stood at 2 µg/mL (≈ 5.34 µM).
On to `Oc1ccc2cc1Oc1ccc(cc1)CCc1ccc(c(O)c1O)Oc1cccc(c1)CC2`, for which the MID in the data set on Candida albicans [3] was found to be 0.2 µg/mL. In addition, in data set [4], the MIC was found to be 0.5 µg/mL.
`Oc1ccc2c(c1)CCc1ccc(O)c(c1)-c1cc(cc(Cl)c1O)/C=C(/Cl)c1ccc-2c(O)c1`: the IC50 was determined as 7.6 µg/mL with Botrytis cinerea, 3.9 µg/mL with Pyricularia oryzae and 15.9 µg/mL in the data set on Zymoseptoria tritici.
On to `Oc1ccc(CCc2c(Cl)cc(Cl)c(O)c2Cl)cc1Cl`, for which the LC50 in data set [5] is 0.42 ppm.
`COc1ccc2c(c1)CCc1ccc(cc1)Oc1cc(ccc1O)CCc1ccc-2c(O)c1` showed an ID50 in data set [6] of 20 µg/mL (≈ 45.6 µM). Further, the inhibition in data set [7] is 4%.
With `NCCCC(N)(C(=O)O)C(F)F` (stereo unspecified) [EFLORNITHINE], in [8], the EC50 was 2.27 µg/mL (≈ 12.5 µM).
Turning to `Oc1ccc2c(c1)CCc1ccc(O)c(c1)-c1cc(ccc1O)CCc1ccc-2c(O)c1` [ISOPLAGIOCHIN D], the IC50 with Pyricularia oryzae was 4 µg/mL; in the data set with Zymoseptoria tritici, 23.5 µg/mL.
Turning to `COc1ccc(CCc2c(Cl)ccc(O)c2Cl)cc1Cl`, in data set [5], the LC50 was 0.42 ppm.
With `C=C1CC[C@]2(C)[C@@H](O)[C@H]1[C@]1(C)CCC[C@@]12C`, in the data set on Phytophthora infestans, the IC50 worked out at 0.1 µg/mL.
In the case of `COc1ccc(CCc2c(Cl)ccc(O)c2Cl)cc1`, in data set [5], the LC50 turned out to be 0.42 ppm.
For the compound `C=C1C(=O)C2=C[C@H]1C[C@H](O)C(=O)[C@]1(C)CCCC(C)(C)[C@H]1C[C@H]2O`, in data set [9], the GI50 came to 1.5 µM.
Regarding `C=C(C)[C@H]1Cc2c(CCc3ccccc3)cc(O)c(O)c2O1`, the ID50 in data set [10] amounted to 2 µg/mL (≈ 6.75 µM). Also, the IC50 was 0.44 µg/mL (≈ 1.48 µM) in data set [11] and 26.2 µM against Cyclooxygenase.
As for `C=C1C(=O)C2=C[C@H]1CCC(=O)[C@]1(C)CCCC(C)(C)[C@H]1C[C@H]2O`, the GI50 in data set [9] amounted to 1.2 µM. Further, in the data set with P388, the 50% growth inhibitory concentration (GI50) is 0.1 µg/mL and 300 nM; the IC50 came out at 0.06 µg/mL (≈ 0.19 µM).
Consider `CC1=CC[C@H]2C(C)(C)CCC[C@]2(C)[C@H]1C=O`, for which the IC50 in the data set with Phytophthora infestans was less than 0.03 µg/mL; with Zymoseptoria tritici, 17.6 µg/mL.
On to `COc1cc([C@@]2(C)CCCC2(C)C)cc(O)c1C`, for which the pIC50 with RAW264.7 was 5.39. Moreover, in data set [11], the concentration for half-maximal inhibition (IC50) turned out to be 0.93 µg/mL (≈ 3.74 µM).
Take `Cc1cc(O)c(O)c([C@@]2(C)CCCC2(C)C)c1`: the pIC50 in the data set on RAW264.7 was 5.39. The MIC with Bacillus subtilis was determined as 2 µg/mL (≈ 8.53 µM). For the same compound, in the data set on Staphylococcus aureus, the “diameter of the inhibition zone (DIZ)” value was 17 mm. Also, the IC50 came out at 1.4 µg/mL (≈ 5.97 µM) in the data set with HL-60 and 1.9 µg/mL (≈ 8.11 µM) in [12].
